# How the values were obtained:
# SUM-159PT cells [1] = assay: Fluorescence-based deoxyribonucleoside triphosphate assay in SUM-159PT cells; format: cell-based; conditions: for dCTP and dTTP (pyrimidine nucleoside triphosphate) levels, fluorescence-based assay: 0.5 μM doxorubicin or 12.5 μM cisplatin, 10 hours
# Protocol: (§1) Deoxyribonucleoside triphosphate assay: Cells were maintained in full growth medium, and fresh medium was added at the time cells were treated with doxorubicin. In some cases, SUM-159PT cells were switched to Ham's F12 medium lacking glutamine. For metabolite extraction, medium was aspirated and ice-cold 60% (v/v) methanol was added. The insoluble material in lysates was pelleted by centrifugation at 10,000 g for 10 min. The resulting metabolite-containing supernatants were evaporated using a refridgerated SpeedVac. Samples were re-suspended in water and deoxyribonucleside triphosphate levels were measured as previously described (12).
# SUM-159PT cells [2] = assay: Propidium iodide viability assay in SUM-159PT cells; format: cell-based; conditions: for single-agent activity (percentage of dead cells) / sensitization of SUM-159PT cells to doxorubicin (percentage of dead cells): 80 μM PALA; for single-agent activity (percentage of dead cells): 0.3 μM brequinar or 20 μM A771726, without doxorubicin; for sensitization of SUM-159PT cells to doxorubicin (percentage of dead cells): 0.3 μM brequinar or 20 μM A771726 pre-treatment 12 hours
# Protocol: Propidium iodide viability assay: Cell viability was assayed with a prodium iodide-based plate reader assay, as previously described (25). Briefly, cells in 96-well plates were treated with a final concentration of 30 μM propidium iodide for 60 minutes at 37° C. The initial fluorescence intensity was measured before digitonin was added to each well at a final concentration of 600 μM. After incubating for 30 minutes at 37° C., the final fluorescence intensity was measured. The fraction of dead cells was calculated by dividing the background-corrected initial fluorescence intensity by the final fluorescence intensity.
# [3] = test system: CAD, ERK and S6K1 phosphorylation in SUM-159PT cells; assay: Immunoblotting of CAD, ERK and S6K1 phosphorylation in SUM-159PT cells; format: cell-based
# Protocol: (§2) Immunoblotting: Cells were washed with ice-cold PBS and lysed in radioimmunoprecipitation buffer (RIPA; 1% NP-40, 0.5% sodium deoxycholate, 0.1% SDS, 150 mmol/L NaCl, 50 mmol/L Tris-HCl, pH 7.5, protease inhibitor cocktail, 50 nmol/L calyculin A, 1 mmol/L sodium pyrophosphate, and 20 mmol/L sodium fluoride). Cell extracts were cleared by centrifugation and protein concentration was measured with the Bio-Rad DC protein assay. Lysates were then resolved on acrylamide gels by SDS-PAGE and transferred electrophoretically to nitrocellulose membrane (Bio-Rad). Blots were blocked in Tris-buffered saline (TBST) buffer (10 mmol/L Tris-HCl, pH 8, 150 mmol/L NaCl and 0.2% Tween 20) containing 5% (w/v) nonfat dry milk and then incubated with primary antibody overnight. Membranes were incubated with HRP-conjugated secondary antibody and developed using enhanced chemiluminescence substrate (EMD Millipore).
# [4] = test system: ovarian cancer cells (OVCAR3, OVCAR8); assay: Viability by propidium iodide uptake in ovarian cancer cells; format: cell-based, human; conditions: brequinar pre-treatment 16 h, then doxorubicin 48 hours
# Protocol: Since ovarian cancers display an increase in pyrimidine nucleotides following chemotherapy, we investigated the ability of pyrimidine synthesis inhibitors to sensitize these cells to chemotherapy. Cells were treated with varying doses of doxorubicin in combination with the DHODH inhibitor brequinar for 48 hours, and viability measured by propidium iodide uptake. As observed in breast cancer cells, brequinar also sensitized ovarian cancer cells to doxorubicin (FIGS. 8A-B).
# [5] = test system: human ovarian cancer cell lines (Karumochi, Ovcar3, Ovcar8, Skov3); assay: LC-MS/MS metabolite profiling of ovarian cancer cell lines; format: cell-based; conditions: 2.5 μM cisplatin or 0.5 μM doxorubicin, 24 hours
# Protocol: We treated four different human ovarian cancer cell lines with 2.5 μM cisplatin or 0.5 μM doxorubicin for 24 hours and harvested polar metabolites. The samples were profiled using LC-MS/MS for 303 endogenous metabolites. As in breast cancer cells, we observed increases in pyrimidine metabolites (FIGS. 7A-D).
# SUM-159PT cells [6] = assay: LC-MS/MS metabolomics profiling of SUM-159PT cells; format: cell-based; conditions: 0.5 μM doxorubicin, 10 hours, versus vehicle
# Protocol: (§3) LC-MS/MS metabolomics profiling: For in vitro studies, SUM-159PT cells were maintained in full growth medium, and fresh medium was added at the time cells were treated with doxorubicin. For metabolite extraction, medium from biological triplicates was aspirated and ice-cold 80% (v/v) methanol was added. Cells and the metabolite-containing supernatants were collected and the insoluble material in lysates was pelleted by centrifugation at 10,000 g for 10 min. The resulting supernatant was evaporated using a refridgerated SpeedVac. For in vivo studies, ice-cold 80% (v/v) methanol was added to flash-frozen tumor tissue. Tissue was homogenized using a TissueLyser (Qiagen). The insoluble material was pelleted by centrifugation at 10,000 g for 10 min. The resulting supernatant was evaporated using a refridgerated SpeedVac. Samples were re-suspended using 20 μl HPLC-grade water for mass spectrometry. Ten microlitres was injected and analysed using a 5500 QTRAP hybrid triple quadrupole mass spectrometer (AB/SCIEX) coupled to a Prominence UFLC HPLC system (Shimadzu) with selected reaction monitoring (SRM). Peak areas from the total ion current for each metabolite SRM transition were integrated using MultiQuant v2.0 software (AB/SCIEX). Data analysis was performed using MetaboAnalyst.
# [7] = test system: TNBC cell lines (HCC1143, MDA-MB-468, CAL51 and MDA-MB-231); assay: Fluorescence-based deoxyribonucleoside triphosphate assay in additional TNBC cell lines; conditions: 0.5 μM doxorubicin, 10 hours; HCC1143, MDA-MB-468, CAL51, MDA-MB-231
# Protocol: as §1
# [8] = test system: de novo pyrimidine synthesis pathway in SUM-159PT cells; assay: Isotope labeling with L-glutamine (amide-15N), flux through de novo pyrimidine synthesis; format: cell-based; conditions: 0.5 μM doxorubicin, 4 hours, then 1 hour labeling
# Protocol: Isotope labeling: Ham's F12 medium lacking glutamine (Sigma-Aldrich) was supplemented with 100 μM L-glutamine (amide-^15N). SUM-159PT cells were treated with doxorubicin for 4 hours, at which point medium containing doxorubicin was aspirated and labeled medium was added to the cells. After 1 hour of labeling, cellular metabolites were extracted as described above and quantified using SRM on a 5500 QTRAP mass spectrometer using a protocol to detect ^15N-labelled isotopologues of metabolites in the de novo pyrimidine synthesis pathway.
# [9] = test system: CAD phosphorylation in TNBC cell lines (HCC1143, MDA-MB-468, CAL-51 and MDA-MB-231); assay: Immunoblotting of CAD phosphorylation in additional TNBC cell lines; format: cell-based; conditions: 0.5 μM doxorubicin, 4 hours; HCC1143, MDA-MB-468, CAL51, MDA-MB-231
# Protocol: as §2
# SUM-159PT cells [10] = assay: Mitochondrial respiration (oxygen consumption rate, Seahorse analyzer); format: cell-based
# Protocol: Mitochondrial respiration: Mitochondrial respiration was assessed using the Seahorse XFe-96 Analyzer (Seahorse Bioscience). SUM-159PT cells (50,000 cells per well) were treated with vehicle control, 0.5 μM Doxorubicin, 20 μM A771726, or the combination (A771726 & Doxorubicin) for 4 hours in normal media conditions. Following this incubation, media was changed to a non-buffered, serum-free Seahorse Media (Seahorse Bioscience, Catalog #102353) supplemented with 5 mM glucose, 2 mM L-glutamine, and 1 mM sodium pyruvate, and the oxygen consumption rate (OCR) was measured. In addition, OCR was measured for 30 minutes upon drug treatment and cells were subsequently challenged with either 1 μM Oligomycin or 0.5 μM Antimycin A to assess their effect on mitochondrial respiration. All experiments were normalized to cell number.
# [11] = test system: p-H2A.X (Ser139) in SUM-159PT cells; assay: H2A.X phosphorylation (DNA damage) by immunoblotting and immunofluorescence; format: cell-based; conditions: 0.5 μM doxorubicin, 10 hours
# Protocol: as §2
# Immunofluorescence: Cells plated on coverslips were fixed with 2% paraformaldehyde for 10 minutes, permeabilized with 0.5% Triton X-100, and blocked with 1% BSA in 20 mmol/L Tris-HCl, pH 7.5, for 20 minutes. Coverslips were then incubated with Alexa Fluor® 647—conjugated anti-phospho H2A.X 5139 antibody (1:100) for 3 hours. […] Images of cells were acquired using a fluorescence microscope (Nikon Eclipse Ti) and digital image analysis software (NIS-Elements, Nikon).
# [12] = test system: MDA-MB-231 xenograft tumors; assay: LC-MS/MS metabolomics profiling of MDA-MB-231 xenograft tumors; format: in vivo, nude mice; conditions: 1 mg/kg doxorubicin, 24 hours, versus vehicle-treated tumors
# Protocol: as §3
# [13] = test system: MDA-MB-231 tumor xenografts; assay: MDA-MB-231 xenograft combination therapy study (tumor volume); format: in vivo, nude mice; conditions: for growth of MDA-MB-231 tumor xenografts (tumor volume): leflunomide 7.5 mg/kg i.p., doxorubicin 1 mg/kg i.p., 28 days
# Protocol: Xenograft studies: Female nude mice (6 weeks old) were purchased from Taconic and maintained and treated under specific pathogen-free conditions. All procedures were approved by the Institutional Animal Care and Use Committee at Beth Israel Deaconess Medical Center (BIDMC) and conform to the federal guidelines for the care and maintenance of laboratory animals. The mice were injected subcutaneously with 4×10^6 MDA-MB-231 cells in medium containing 50% growth-factor-reduced, phenol red-free Matrigel (Corning). Tumor formation was examined every two to three days for the duration of the experiment. […] Tumors were collected and flash-frozen 24 hours after animals were exposed to vehicle or doxorubicin. […] Leflunomide (7.5 mg/kg) was administered on days 1-7, 10, 14, 17, 21 and 24 by i.p. injection. Doxorubicin (1 mg/kg) was administered on days 1, 7, 14 and 21 by i.p. injection. Mice were weighed on days 1, 7, 14, 21 and 28. Tumor volume was calculated using the following equation: Tumor volume=(π/6)(W^2)(L), where W represents width, and L represents length.
# tumor xenograft models = conditions: single agent, references 22, 23; cited from earlier work
# [14] = clinical use; cited from earlier work
# [15] = 40 μM PALA, 0.5 μM doxorubicin 10 hours
smiles,measurement,setting,value
"O=C(O)C[C@H](NC(=O)CP(=O)(O)O)C(=O)O [PALA, N-(phosphonacetyl)-L-aspartate]",effect on doxorubicin-induced alterations in dTTP levels,SUM-159PT cells [1]; [15],did not inhibit
same,effect on increase in dCTP levels induced by doxorubicin,SUM-159PT cells [1]; [15],effectively abrogated
same,single-agent activity (percentage of dead cells),SUM-159PT cells [2],minimal single-agent activity
same,sensitization of SUM-159PT cells to doxorubicin (percentage of dead cells),SUM-159PT cells [2]; then doxorubicin 48 hours,dramatically sensitized
N#CC(=C(/N)Sc1ccccc1N)/C(C#N)=C(\N)Sc1ccccc1N [U0126],effect on increase in pyrimidine nucleotides following doxorubicin exposure,"SUM-159PT cells [1]; 5 μM U0126, 0.5 μM doxorubicin 10 hours",effectively suppressed
same,effect on doxorubicin-induced CAD Thr456 phosphorylation,"[3]; 5 μM U0126 pre-treatment 12 hours, then 0.5 μM doxorubicin 4 hours",blocked
Cc1c(-c2ccc(-c3ccccc3F)cc2)nc2ccc(F)cc2c1C(=O)O [brequinar],single-agent activity (percentage of dead cells),SUM-159PT cells [2],minimal single-agent activity
same,sensitization of SUM-159PT cells to doxorubicin (percentage of dead cells),SUM-159PT cells [2]; then doxorubicin 48 hours,dramatically sensitized
same,sensitization of ovarian cancer cells to doxorubicin (viability),[4],sensitized
N.N.[Cl][Pt][Cl] [cisplatin],"dCTP and dTTP (pyrimidine nucleoside triphosphate) levels, fluorescence-based assay",SUM-159PT cells [1],Elevated levels
same,"pyrimidine metabolite abundance, LC-MS/MS",[5],increases
COc1cccc2c1C(=O)c1c(O)c3c(c(O)c1C2=O)C[C@@](O)(C(=O)CO)C[C@@H]3O[C@H]1C[C@H](N)[C@H](O)[C@H](C)O1 [doxorubicin],"abundance of purine nucleotide species, LC-MS/MS",SUM-159PT cells [6],elevated
same,"abundance of pyrimidine nucleotide species, LC-MS/MS",SUM-159PT cells [6],increased the abundance of the majority of pyrimidine nucleotide species
same,"increase in deoxycytidine triphosphate (dCTP) level, LC-MS/MS",SUM-159PT cells [6],greater than 2 fold
same,"increase in deoxythymidine triphosphate (dTTP) level, LC-MS/MS",SUM-159PT cells [6],greater than 2 fold
same,"dCTP and dTTP (pyrimidine nucleoside triphosphate) levels, fluorescence-based assay",SUM-159PT cells [1],robustly increased
same,abundance of dCTP and dTTP,[7],increased the abundance
same,incorporation of 15N-glutamine label into N-carbamoyl-aspartate,[8],significant increase
same,ERK1/2 phosphorylation,[3]; 0.5 μM doxorubicin,increase
same,phosphorylation state of CAD at the S6K1 site (Ser1859),[3]; 0.5 μM doxorubicin,no measurable changes
same,phosphorylation state of S6K1,[3]; 0.5 μM doxorubicin,no measurable changes
same,phosphorylation of CAD at the ERK site (Thr456),"[3]; 0.5 μM doxorubicin, within two hours",striking increase
same,CAD Ser1859 phosphorylation,[9],No changes
same,CAD Thr456 phosphorylation,[9],stimulated
same,cell viability (percentage of dead cells),"SUM-159PT cells [2]; 0.5 μM doxorubicin alone, 48 hours, SUM-159PT",negligible effects on cell viability
same,oxygen consumption rate (OCR),"SUM-159PT cells [10]; 0.5 μM doxorubicin or 20 μM A771726, 4 hours, 50,000 SUM-159PT cells",negligible effect
same,sensitivity of OCR to oligomycin and antimycin,"SUM-159PT cells [10]; 0.5 μM doxorubicin, 1 μM oligomycin, 0.5 μM Antimycin A",did not affect sensitivity
same,DNA damage (histone H2A.X phosphorylation),[11],effectively induced DNA damage
same,"abundance of pyrimidine nucleotide species in tumors, LC-MS/MS",[12],significant increase
same,growth of MDA-MB-231 tumor xenografts (tumor volume),[13],cytostatic
same,"pyrimidine metabolite abundance, LC-MS/MS",[5],increases
Cc1oncc1C(=O)Nc1ccc(C(F)(F)F)cc1 [leflunomide],growth of MDA-MB-231 tumor xenografts (tumor volume),[13],did not significantly affect
same,sensitization of MDA-MB-231 xenograft tumors to doxorubicin,[13]; leflunomide with doxorubicin 1 mg/kg,drastically sensitizes
same,anti-tumor activity in tumor xenograft models,tumor xenograft models,anti-tumor activity
same,tolerability in humans,[14],well tolerated
O=c1ccn([C@@H]2O[C@H](CO)[C@@H](O)[C@H]2O)c(=O)[nH]1 [uridine],rescue: effect on efficacy of the A771726 plus doxorubicin combination treatment (percentage of dead cells),"SUM-159PT cells [2]; 100 μM uridine with 20 μM A771726 pre-treatment 12 hours, then doxorubicin 48 hours",completely blocked
